Laboratory results taken from patent publication US20230285405A1, “Pharmaceuticals for Treating or Preventing Nidoviruses and Picornaviruses” (priority 2020, published 2023).
Structures can show the parent of a compound that is named as a salt. Where two headings read alike, the source gives them in different places.

Key:
OC43 = experiment: Drug screening: OC43 nucleoprotein staining in infected A549-mRuby cells; format: cell-based, human beta coronavirus OC43; details: for activity at 10 µM: Betacoronavirus 1, OC43, 96 h
In short: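 A549 cells expressing H2B-mRuby infected with OC43 at MOI 0.3 for 1 h at 33° C, then drugs added at 10 μM final and incubated 4 days at 33° C. Viral nucleoprotein immunostained and imaged; intensity normalized to cell number and no-drug controls (=100). Hits reduced staining >3 SD in both repeats without toxicity.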

A549-mRuby cells = experiment: Drug screening: effect on cell growth (cell number day 4 / day 0); details: 10 μM drug; for Growth_1: number of cells at day 4 divided by number of cells at day 0 / toxic_1: repeat #1; for Growth_2: number of cells at day 4 divided by number of cells at day 0 / toxic_2: repeat #2
In short: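 A549 cells carrying an H2B-mRuby reporter were infected with OC43 at MOI 0.3 for 1 h at 33° C, then given drug at 10 μM final. Cell numbers were counted by imaging at day 0 and again at day 4 after 4 days at 33° C, 5% CO2, with the screen run twice.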

[1] = 10 μM drug, MOI 0.3, 4 days, OC43 staining normalized to no-drug controls, mean of the two screen repeats, read-out: OC43_mean
[2] = 10 μM drug, MOI 0.3, 4 days, normalized to no-drug controls in the same plate, repeat #1, read-out: OC43_1: % staining of OC43 in screen repeat #1
[3] = 10 μM drug, MOI 0.3, 4 days, normalized to no-drug controls in the same plate, repeat #2, read-out: OC43_2: % staining of OC43 in screen repeat #2
[4] = 10 μM drug, MOI 0.3, 4 days, OC43 staining normalized to no-drug controls, mean of the two screen repeats
[5] = 10 μM drug, MOI 0.3, 4 days, normalized to no-drug controls in the same plate, repeat #1
[6] = 10 μM drug, MOI 0.3, 4 days, normalized to no-drug controls in the same plate, repeat #2

SMILES	hit_1 (OC43; 10 μM drug, repeat #1)	hit_2 (OC43; 10 μM drug, repeat #2)	activity at 10 µM (OC43; [1])	activity at 10 µM (OC43; [2])	activity at 10 µM (OC43; [3])	Growth_1: number of cells at day 4 divided by number of cells at day 0 (A549-mRuby cells)	toxic_1 (A549-mRuby cells)	Growth_2: number of cells at day 4 divided by number of cells at day 0 (A549-mRuby cells)	toxic_2 (A549-mRuby cells)	OC43_mean (OC43; [4])	OC43_1: % staining of OC43 in screen repeat #1 (OC43; [5])	OC43_2: % staining of OC43 in screen repeat #2 (OC43; [6])	activity at 10 µM (OC43; read-out: OC43_mean)	Growth_1: number of cells at day 4 divided by number of cells at day 0 (A549-mRuby cells; hydrochloride)	Growth_2: number of cells at day 4 divided by number of cells at day 0 (A549-mRuby cells; hydrochloride)	OC43_1: % staining of OC43 in screen repeat #1 (OC43; 10 μM drug, MOI 0.3, 4 days, normalized to no-drug controls in the same plate, repeat #1, ditosylate monohydrate)	Growth_1: number of cells at day 4 divided by number of cells at day 0 (A549-mRuby cells; ditosylate monohydrate)	Growth_2: number of cells at day 4 divided by number of cells at day 0 (A549-mRuby cells; ditosylate monohydrate)
CC(C)(O)CNc1nc(Nc2ccnc(C(F)(F)F)c2)nc(-c2cccc(C(F)(F)F)n2)n1 [Enasidenib (AG-221), Enasidenib]	1	1	26.1%	23.3%	29%	5.2	0	4.8	0	–	–	–	–	–	–	–	–	–
CCC(=O)O[C@H]1[C@H](O[C@@H]2[C@@H](C)[C@H](O[C@H]3C[C@@](C)(OC)[C@@H](O)[C@H](C)O3)[C@@H](C)C(=O)O[C@H](CC)[C@@](C)(O)[C@H](O)[C@@H](C)C(=O)[C@H](C)C[C@@]2(C)O)O[C@H](C)C[C@@H]1N(C)C [Erythromycin estolate]	1	1	20.1%	24.2%	15.9%	4.5	0	4.8	0	–	–	–	–	–	–	–	–	–
CC[C@H]1OC(=O)[C@H](C)[C@@H](O[C@H]2C[C@@](C)(OC)[C@@H](O)[C@H](C)O2)[C@H](C)[C@@H](O[C@@H]2O[C@H](C)C[C@H](N(C)C)[C@H]2O)[C@](C)(O)C[C@@H](C)C(=O)[C@H](C)[C@@H](O)[C@]1(C)O.N#CS [Erythromycin thiocyanate]	1	1	–	–	–	4.1	0	4.6	0	58.7%	50.6%	66.8%	–	–	–	–	–	–
C#C[C@]1(O)CC[C@H]2[C@@H]3CCC4=CC(=O)CC[C@@H]4[C@H]3C(=C)C[C@@]21CC [Etonogestrel]	1	1	44.3%	47.8%	40.7%	4.3	0	4.3	0	–	–	–	–	–	–	–	–	–
CC1(C)O[C@@H]2C[C@H]3[C@@H]4C[C@H](F)C5=CC(=O)C=C[C@]5(C)[C@@]4(F)[C@@H](O)C[C@]3(C)[C@]2(C(=O)CO)O1 [Fluocinolone Acetonide]	1	1	45.5%	38.9%	52.2%	3.5	0	4.0	0	–	–	–	–	–	–	–	–	–
CCC(=O)O[C@]1(C(=O)SCF)[C@H](C)C[C@H]2[C@@H]3C[C@H](F)C4=CC(=O)C=C[C@]4(C)[C@@]3(F)[C@@H](O)C[C@@]21C [Fluticasone propionate]	1	1	–	–	–	3.8	0	4.2	0	48.8%	48.4%	49.2%	–	–	–	–	–	–
COCCCC/C(=N\OCCN)c1ccc(C(F)(F)F)cc1 [Fluvoxamine maleate]	1	1	–	22.7%	38.9%	5.4	0	4.5	0	–	–	–	30.8%	–	–	–	–	–
COc1cc2ncnc(Nc3ccc(F)c(Cl)c3)c2cc1OCCCN1CCOCC1 [Gefitinib (ZD1839), Gefitinib]	–	–	–	–	–	3.4	–	3.7	–	35.5%	39.7%	31.3%	–	–	–	–	–	–
COc1cc2ncnc(Nc3ccc(F)c(Cl)c3)c2cc1OCCCN1CCOCC1 [Gefitinib hydrochloride]	1	1	23.9%	20%	27.8%	–	0	–	0	–	–	–	–	3.5	3.3	–	–	–
N=C(N)N/N=C/c1c(Cl)cccc1Cl [Guanabenz Acetate]	1	1	34.6%	31.1%	38.1%	5.3	0	4.4	0	–	–	–	–	–	–	–	–	–
CCN(CCO)CCCC(C)Nc1ccnc2cc(Cl)ccc12 (centres unmarked) [Hydroxychloroquine Sulfate]	1	1	16.2%	17.8%	14.6%	5.1	0	4.9	0	–	–	–	–	–	–	–	–	–
CS(=O)(=O)CCNCc1ccc(-c2ccc3ncnc(Nc4ccc(OCc5cccc(F)c5)c(Cl)c4)c3c2)o1.Cc1ccc(S(=O)(=O)O)cc1.Cc1ccc(S(=O)(=O)O)cc1 [Lapatinib (GW-572016) Ditosylate]	1	1	–	–	–	5.0	0	5.9	0	24.8%	17.6%	32.0%	–	–	–	–	–	–
CS(=O)(=O)CCNCc1ccc(-c2ccc3ncnc(Nc4ccc(OCc5cccc(F)c5)c(Cl)c4)c3c2)o1 [Lapatinib ditosylate monohydrate]	1	1	16.6%	–	9.5%	–	0	–	0	–	–	–	–	–	–	23.8%	4.2	4.2
COc1ccc(CN2CCN(C(c3ccc(F)cc3)c3ccc(F)cc3)CC2)c(OC)c1OC.Cl.Cl [Lomerizine 2HCl]	1	1	–	–	–	4.7	0	5.3	0	39.9%	56.5%	23.3%	–	–	–	–	–	–
CNCCCC12CCC(c3ccccc31)c1ccccc12 [Maprotiline HCl]	1	1	26%	27%	25.1%	3.5	0	3.1	0	–	–	–	–	–	–	–	–	–
